Experimental data from patent publication US7153853B2, “Heterocyclic compounds and antitumor drugs containing the same as the active ingredient” (Zenyaku Kogyo Kabushiki Kaisha, priority 2002, dated 2006).
Read-outs that look alike come from different tables or passages of the source.

Columns and labels:
[1] = system: human colonic cancer WiDr; assay: Test 2: human colonic cancer WiDr transplanted subcutaneously in nude mice, relative tumor growth T/C; format: in vivo, BALB/c nude mice; conditions: 200 mg/kg intraperitoneally, once a day, six times a week, two weeks; effective (+) = T/C less than 50% and Mann-Whitney significant at one-sided 1%
Excerpt: Mutant BALB/c nude mice were used for routine culture of 2-mm-square piece of human colonic cancer WiDr which was transplanted subcutaneously into left breast of each of the mice. The mice were separated for testing into groups each of five mice at the time of the tumor in its logarithmic growth phase. The samples prepared by dissolving test compounds in physiological saline solution or suspending them in 1% hydroxypropyl cellulose (HPC), using an agate mortar, were intraperitoneally administered at a rate of 200 mg/kg, once a day and six times a week in total, for two weeks. Major and minor axes of the tumor mass were measured on a daily basis to calculate tumor volume. […] As a result, the compound according to the present invention was effective whereas the comparative compound A was ineffective.

[2] = system: MCF-7 cells; assay: Test 1: growth inhibition of MCF-7 human breast cancer cells; format: cell-based; conditions: read-out: GI50 (50% growth inhibition concentration)
Experimental: Used in the test were MCF-7 cells which were established from human breast cancer and were cultured routinely under the conditions of 37° C. and 5% CO2, in MEM medium supplemented with 10% fetal calf serum, 25 mM of HEPES and 0.1 mg/ml of kanamycin. The MCF-7 cells in a logarithmic growth phase were treated with trypsin/EDTA to prepare single cell suspension adjusted to 4.0×10^4 cells/ml in MEM medium (supplemented with 10% fetal calf serum, 25 mM of HEPES and 0.1 mg/ml of kanamycin). Test compounds were dissolved in DMSO and diluted with RPMI 1640 medium (supplemented with 10% fetal calf serum, 25 mM of HEPES and 0.1 mg/ml of kanamycin) to a concentration of 2.0×10^−9−2.0×10^−4 M.
The cell suspension was filled in a 96-wells microplate at a rate of 0.1 ml per well and was cultured for 24 hours so as to make the cells adhered to the microplate. Then, it was added with 0.1 ml of the sample solution and cultured at 37° C. for 72 hours in 5% CO2.
50% Growth inhibition concentrations (GI50 μM) were calculated from growth inhibitions at various sample concentrations.

[3] = Homo sapiens, MCF7, cultured 72 hours with sample

melting point | GI50 [2, 3] [nM] | GI50 ([2]; cultured 72 hours with sample) [nM] | SMILES | antitumor effect judged from T/C (%) of the last day [1]
194 °C (dec.) |  |  | CN1CCC(N(C)c2nc(N3CCOCC3)nc(-n3c(C(F)F)nc4c(Cl)cc(N)cc43)n2)CC1 | 
 | 2200 |  | C[C@@H]1OCCN(c2cc(N3CCOCC3)nc(-n3cnc4ccccc43)n2)[C@H]1C (relative stereo) [compound A, 2-(benzimidazol-1-yl)-4-(trans-2,3-dimethylmorpholino)-6-morpholinopyrimidine, reference compound] | ineffective
195 to 198 °C | 70 |  | OCC1CCCN1c1cc(N2CCOCC2)nc(-n2c(C(F)F)nc3c(O)cccc32)n1 (stereo not drawn) [compound 1, 2-(2-difluoromethyl-4-hydroxybenzimidazol-1-yl)-4-(2-hydroxymethylpyrrolidin-1-yl)-6-morpholinopyrimidine] | 
238 °C (dec.) | 80 |  | CC1(C)CN(c2nc(N3CCOCC3)nc(-n3c(C(F)F)nc4c(Cl)cc(N)cc43)n2)CCO1 [compound 2, 2-(6-amino-4-chloro-2-difluoromethylbenzimidazol-1-yl)-4-(2,2-dimethylmorpholino)-6-morpholino-1,3,5-triazine] | 
256 °C (dec.) | 270 |  | Nc1cc(Cl)c2nc(C(F)F)n(-c3nc(N4CCOCC4)nc(N4CCCC4CO)n3)c2c1 (stereo not drawn) [compound 3, 2-(6-amino-4-chloro-2-difluoromethylbenzimidazol-1-yl)-4-(2-hydroxymethylpyrrolidin-1-yl)-6-morpholino-1,3,5-triazine] | 
 |  | 60 | OCC1CCCN1c1nc(N2CCOCC2)nc(-n2c(C(F)F)nc3c(O)cccc32)n1 (stereo not drawn) [compound 5, 2-(2-difluoromethyl-4-hydroxybenzimidazol-1-yl)-4-(2-hydroxymetylpyrrolidin-1-yl)-6-morpholino-1,3,5-triazine] | 
> 250 °C | 80 |  | Oc1ccc2c(nc(C(F)F)n2-c2nc(N3CCOCC3)nc(N3CCOCC3)n2)c1Cl [compound 6, 2-(4-chloro-2-difluoromethyl-5-hydroxybenzimidazol-1-yl)-4,6-dimorpholino-1,3,5-triazine] | 
 | 3700 |  | Cc1nc2ccccc2n1-c1nc(N2CCOCC2)nc(N2CCOCC2)n1 [compound B, 2-(2-methylbenzimidazol-1-yl)-4,6-dimorpholino-1,3,5-triazine, reference compound] | 
 | 20000 |  | c1cn(-c2nc(N3CCOCC3)nc(N3CCOCC3)n2)cn1 [compound C, 2-(imidazol-1-yl)-4,6-dimorpholino-1,3,5-triazine, reference compound] | 
 | > 100000 |  | CN(C)c1nc(N(C)C)nc(N(C)C)n1 [compound D, hexamethylmelamine, reference compound] | 
